The results in this text go back to patent US20260234173A1, “STRUCTURED MOLECULAR VECTORS FOR ANTI-INFLAMMATORY COMPOUNDS AND USES THEREOF” (Universite Claude Bernard Lyon 1, priority 2019, published 2026).

Assay [1] relates to fully amygdala-kindled rats. Nature of the assay: Seizure severity in fully amygdala-kindled rats (Racine's scale). In kind it is in vivo, rat. The procedure:
All animal procedures were in compliance with the guidelines of the European Union (directive 2010-63), regulating animal experimentation, and have been approved by the ethical committee of the Claude Bernard Lyon 1 University. Male Sprague-Dawley rats (Envigo, France) were used in these experiments. They were housed in a temperature-controlled room (23±1° C.) under diurnal lighting conditions (lights on from 6 a.m to 6 p.m). Rats arrived 15 days prior to the beginning of the experiments. They were maintained in groups of 2 in 800 cm2 plastic cages comprising minimal environmental enrichment (nesting cardboard material, wooden gnowing sticks), and had free access to food and water.
For surgical implantation of kindling electrodes, rats weighing 220-240 g were anesthetized using isoflurane (5% induction; 2% maintenance) and treated with the analgesic drug buprenorphine (0.050 mg/kg, i.m.). Their heads were positioned in a stereotaxic apparatus with the incisor bar set at −3.3 mm. Burr holes were drilled for the placement of three stainless steel jewelers' screws in the left parietal, right frontal and occipital bones, and over the site of implantation of the electrode used for amygdala kindling. This stimulation and recording electrode consisted of a teflon-isolated bipolar stainless-steel electrode aimed at the right basolateral amygdala (stereotaxic coordinates relative to Bregma: anterior-posterior, −2.8 mm; lateral, +4.8 mm; dorso-ventral, −8.5 mm). The screws placed above the parietal cortex and the frontal cortex served as recording electrodes, and the placed above the cerebellum served as grounding. Bipolar, recording and grounding electrodes were connected to a plug anchored to the skull with dental acrylic cement.
Electrical stimulation via the kindling electrode was initiated after a recovery period of 1 week after surgery, and was performed at the same time of the day (between 9:00 and 11:00 A.M. and then between 4:00 and 6:00 P.M.) to avoid intraday variance between animals. Constant current stimulations (500 μA, biphasic square-wave pulses, 50 pulses/s for 2 s) were delivered twice daily until at least 5 fully kindled seizures (secondarily generalized stage 5 seizures) were elicited. Seizure severity was classified behaviorally according to Racine's scale: stage 1, immobility, slight facial clonus (eye closure, twitching of vibrissae, sniffing); stage 2, head nodding associated with more severe facial clonus; stage 3, clonus of one forelimb; stage 4, rearing, often accompanied by bilateral forelimb clonus; stage 5, tonic-clonic seizure accompanied by loss of balance and falling.
To evaluate the effect of SYN-PN on seizure severity, SYN-PN was prepared in saline and injected intraperitoneally at 5, 10 or 50 mg/kg, 45 min prior to electrical stimulation in fully kindled rats. Briefly, the day after the last stage 5 seizure, on day 1, the rats received a first dose of SYN-PN (5 mg/kg) and were stimulated 45 minutes later. At D2 and D5, they were stimulated without SYN-PN injection to evaluate the residual effect of the 5 mg/kg dose. On D6, they received a second dose of SYN-PN (10 mg/kg) and were stimulated 45 minutes later. They were then simulated at D7 and D8 to evaluate the residual effect of the 10 mg/kg dose. On D9, rats received a third dose of SYN-PN (50 mg/kg) and were stimulated 45 minutes later. They were then simulated at D10 and D11 to evaluate the residual effect of the 50 mg/kg dose. Finally, they received 1) a daily dose of SYN-PN at 5 mg/kg from D12 to D15 and were stimulated at D16; 2) a daily dose of SYN-PN at 10 mg/kg from D19 to D22 and were stimulated at D23; and 3) a daily dose of SYN-PN at 20 mg/kg from D26 to D29 and were stimulated at D30. The treatments were then stopped. However, to assess the persistence of the effects of this series of treatments, rats continued to be stimulated at 7, 15, 42 and 56 days after the last treatment at 20 mg/kg.

The test system of assay [2] is epileptic rats (post Pilo-SE). Nature of the assay: Morris water maze (MWM) spatial learning in epileptic rats. In kind it is in vivo, rat. The settings on record: epileptic rats injected during the first week post-SE, tested 5 weeks post-SE, versus saline. How it is done:
All injected solutions were prepared in sterile saline (0.9% w/v). At weaning (postnatal day 20 (P20)), Sprague-Dawley male rat pups were first injected i.p. with lithium chloride (127 mg/Kg; Sigma-Aldrich), to decrease the dose of pilocarpine needed to trigger Status Epilepticus (SE). Scopolamine methylnitrate (1 mg/Kg; Sigma-Aldrich) was injected s.c. 18 h later, to alleviate peripheral cholinergic adverse side effects. Pilocarpine hydrochloride (25 mg/Kg; Sigma-Aldrich) was injected i.p. 30 min later, to induce SE. After 30 min of continuous behavioral SE, diazepam (Valium®, Roche) was injected i.p. at 10 mg/Kg, to promote survival and initiate cessation of behavioral seizures, that completely stopped after a second s.c. injection of diazepam, given 90 min later at the dose of 5 mg/Kg. The rats were placed on a heated pad, under continuous observation, until they recovered from sedation. Following recovery, the rats were returned to the nursing mother until P23. Control rats only received saline injections. […]
Spatial learning ability was measured at 5 weeks post-SE by the Morris water maze (MWM). […]
The statistical analyses were performed using SigmaPlot software version 12. […] For MWM test, data were analyzed by two-way repeated measures ANOVA followed by Fisher LSD post hoc tests to compare differences between groups at several time points.

Turning to `CCC=CCC=CCC=CCC=CCC=CCC=CCCC(=O)NCCP(=O)(O)O` [synaptamide phosphonate], in assay [1] (all rats (n=15)), the “rats with absence of seizures 15 days after stopping treatment” value is 7/15. Further, the “decrease of mean seizure severity” value in assay [1] (all rats (n=15), D1, 5 mg/kg i.p. 45 min before stimulation) stood at 19.0±7.9%. Further, the “seizure severity compared to D0” value in assay [1] (all rats (n=15), D2, day after 5 mg/kg, no injection) was −23.1±8.1%; in assay [1] (all rats (n=15), D6, 10 mg/kg i.p. 45 minutes before stimulation), “not significantly different from that at D0”; in assay [1] (all rats (n=15), D16, after daily 5 mg/kg from D12) it was −42.0±9.2%; in assay [1] (all rats (n=15), the next day and the day after 10 mg/kg (D7-D8), at the most), −39.4±11.1%; in assay [1] (rats responding to 5 mg/kg (n=8), D16 after daily 5 mg/kg) it was −87.0±13.0%; in assay [1] (rats responding to 5 mg/kg (n=8), same day of administration), −36.4±11.7%. In addition, the “effect of 5 mg/kg on seizure severity at D5” value in assay [1] (all rats (n=15), D5, no injection) was “lost”. For the same compound, the “delay of the maximum effect on seizure severity after administration” value in assay [1] (any dose) lay within 24 to 48 h. Besides, the “rats responding to 5 mg/kg” value in assay [1] (decrease in seizure severity first observed at 5 mg/kg i.p.) was 8/15. In assay [1] (decrease in seizure severity first observed at 10 mg/kg i.p.), the “rats responding to 10 mg/kg” value is listed as 3/15. Also, the “rats responding to 50 mg/kg” value in assay [1] (decrease in seizure severity first observed at 50 mg/kg i.p.) is reported as 4/15. Further, the “average severity of seizures on increasing the daily dose from 5 to 10, then to 20 mg/kg” value in assay [1] (rats responding to 5 mg/kg, 4 daily doses each) was “did not change the average severity of seizures”. In addition, the “rats remaining at stage 0” value in assay [1] (rats responding to 5 mg/kg, D16 after daily 5 mg/kg) is listed as 7/8. The “rats free from seizures” value is on record as 7/8 in assay [1] (rats responding to 5 mg/kg, after 4 daily doses of 5 mg/kg) and 4/8 in assay [1] (rats responding to 5 mg/kg, after 4 daily doses of 10 mg/kg). Moreover, the “decrease of seizure severity compared to D0” value in assay [1] (rats responding to 10 mg/kg (n=3)) was “not significantly different from DO”; in assay [1] (rats responding to 50 mg/kg (n=4)), “too variable to observe a significant effect”. Moreover, in assay [1] (rats responding to 10 mg/kg (n=3), after 5 mg/kg for 4 days), the “severity reduction at D16” value is “maintained”. Also, in assay [1] (rats responding to 50 mg/kg (n=4), after 5 mg/kg for 4 days), the “seizure reduction at D16” value is “only transient and lost at D16”. Also, the “duration of the protective effect against seizures after stopping treatment” value in assay [1] (rats responding to 50 mg/kg, after high doses (20 mg/kg)) is recorded as “up to 15 days”. Also, the “persistence of seizure freedom after stopping treatment” value in assay [1] (substantial population of rats) is “free of seizures, even after almost two months of stopping treatment”. The “spatial learning in MWM (latency to find the platform)” value in assay [2] was “increased average latency to find the platform”.
